Here are results for 51 compounds from PubChem BioAssay AID1996.

Converted amounts (≈) assume the structure as drawn.

For this data set the following is noted: buffer; pH 7.4; 200.0 µM.
With `COc1ccccc1OCCNC(=O)CCS(=O)(=O)c1ccccc1`, the solubility (kinetic) (usually solubility judged after dilution from a stock solution rather than from solid) is greater than 54.5 µg/mL.
The result for `S=C(NCCc1ccccc1)Nc1c(Cl)cccc1Cl` reads 44.3 µg/mL (≈ 136 µM).
`CCN(CC)CCCNC(=S)Nc1ccc(Br)cc1`: the solubility (kinetic) was greater than 51.6 µg/mL.
Under `COc1ccccc1C1NC(=O)NC(C)=C1C(=O)OC1CCC(C)CC1` (stereo unspecified) stands less than 0.4 µg/mL; under `CC1CC(C)CN(C(=O)CN2C(=O)NC3(CCCCCC3)C2=O)C1` (stereo unspecified), greater than 50.3 µg/mL; under `O=[N+]([O-])c1ccc(-n2ccnc2)cc1`, greater than 28.4 µg/mL.
Under `CCCn1c(=O)cc(N)n(-c2ccc(OC(F)(F)F)cc2)c1=O` stands greater than 49.4 µg/mL; under `O=C(Nc1ccc(N2CCOCC2)cc1N1CCOCC1)c1ccccc1`, greater than 55.1 µg/mL.
As to `Cc1nc2sc3c(c2c(=O)n1NC(=O)CCl)CCCC3`, the solubility (kinetic) was greater than 46.8 µg/mL.
The result for `NC(=O)COc1cc2oc(=O)c3c(c2cc1Cl)CCCC3` reads 7.1 µg/mL (≈ 23.1 µM); that for `CCC1(CC)C(=O)N(C)C(=O)NC1=NC`, greater than 31.7 µg/mL; that for `CC(CC(=O)Nc1ccc2c(c1)OCO2)c1ccccc1` (stereo unspecified), 38.5 µg/mL (≈ 136 µM).
The result for `C=CCN1C(=O)CSC1=Nc1ccc(C(=O)O)cc1` reads greater than 41.4 µg/mL.
The result for `Cc1ccc(NC2=CC(=O)C(=O)c3ccccc32)c(C)c1` reads 3.5 µg/mL (≈ 12.6 µM); that for `COc1ccccc1C(=O)NC(C)c1cccc2ccccc12` (stereo unspecified), 18.7 µg/mL (≈ 61.2 µM).
The compound `Cc1cccnc1NC(=O)c1ccc(Cl)c(S(=O)(=O)N2CCCC2)c1` returned a kinetic solubility greater than 57 µg/mL.
The compound `COc1ccc(C(CNC(=O)c2ccc(S(=O)(=O)N3CC(C)CC(C)C3)cc2)N(C)C)cc1` (stereo unspecified) had a kinetic solubility greater than 71 µg/mL.
Under `CCc1nnc(SC(C)C(=O)Nc2nccs2)n1C` (stereo unspecified) stands greater than 44.6 µg/mL; under `CC1CCCC(C)N1C(=O)COc1cccc(Oc2ccccc2)c1` (stereo unspecified), 20.8 µg/mL (≈ 61.3 µM); under `Cc1cccc(/C=N/NC(=O)c2cc(C)nc3ccccc23)n1`, greater than 45.7 µg/mL.
The result for `COc1ccccc1NS(=O)(=O)c1ccc2oc(SC)nc2c1` reads 1.9 µg/mL (≈ 5.42 µM); that for `O=C(Nc1ccc(Cl)cc1Cl)N1CCN(c2ncccn2)CC1`, greater than 52.8 µg/mL; that for `CC(C)n1c(SCC(=O)N2CCCCC2)nc2c1c(=O)n(C)c(=O)n2C`, greater than 56.9 µg/mL.
Under `CCOC(=O)c1c(C)[nH]c(C(=O)NCc2ccccn2)c1C` stands 15.5 µg/mL (≈ 51.4 µM).
Regarding `CCOc1ccc(NC(=O)COC(=O)CC2CCCCC2)cc1`, the kinetic solubility came to 26.6 µg/mL (≈ 83.3 µM).
Under `COc1ccc(CNC(=O)C(=O)NC2CC(C)(C)NC(C)(C)C2)cc1` stands greater than 52.1 µg/mL; under `O=C1c2oc3ccccc3c(=O)c2C(c2ccc(O)cc2)N1c1nccs1` (stereo unspecified), 0.8 µg/mL (≈ 2.13 µM); under `CCSc1c([N+](=O)[O-])c(=O)n(-c2ccccc2)c2ccccc12`, 1.3 µg/mL (≈ 3.98 µM).
The result for `O=C(Cc1ccc(Cl)cc1)NCC(=O)N1CCCCCC1` reads greater than 46.3 µg/mL; that for `CCN(CC)CCn1c(N)nc2ccccc21.Cl`, 44.7 µg/mL.
As for `Clc1ccc(-c2cc(-c3ccccn3)on2)c(Cl)c1`, the solubility (kinetic) is less than 0.3 µg/mL.
For `Cc1cccc(C(=O)NC(=O)Nc2c(C)cc(C)nc2C)c1`, the kinetic solubility is greater than 44.6 µg/mL.
The result for `COc1ccccc1CNC(=O)COC(=O)c1cc(C)oc1C` reads 4.3 µg/mL (≈ 13.6 µM); that for `Cc1nc(N2CCN(C)CC2)c2cc(-c3ccccc3)sc2n1`, 1.8 µg/mL (≈ 5.55 µM).
Compound `CN(C)CCCN1C(=O)c2cccc3cccc(c23)C1=O` returned a solubility (kinetic) greater than 42.4 µg/mL.
In turn, `CC(=O)Oc1ccccc1-c1nc(/C=C/c2ccccc2)no1` gave a kinetic solubility of less than 0.3 µg/mL.
The result for `COc1ccccc1-n1cccc1C=O` reads greater than 30.2 µg/mL.
`Clc1ccc2c(c1)CCc1cccnc1C2=C1CCNCC1` displayed a solubility (kinetic) of 21.6 µg/mL (≈ 69.5 µM).
The result for `O=[N+]([O-])c1cccc2ncccc12` reads 16.3 µg/mL (≈ 93.6 µM).
The result for `COc1ccc(C2CC(=O)C=C(NCc3ccccc3)C2)cc1` (stereo unspecified) reads 14.2 µg/mL (≈ 46.2 µM).
The compound `COCCN(C)Cc1nc(C(c2ccccc2)c2ccccc2)no1` registered a solubility (kinetic) of 37.7 µg/mL (≈ 112 µM).
Under `CC(C)C[C@H]1C(=O)N2CCCC2[C@]2(O)O[C@](NC(=O)[C@@H]3C=C4c5cccc6[nH]cc(c56)CC4N(C)C3)(C(C)C)C(=O)N12` (stereo partly specified) stands 24.1 µg/mL (≈ 41.9 µM); under `CN(Cc1ccc(F)cc1)C(=O)c1ccc2c(c1)NC(=O)CS2`, greater than 49.6 µg/mL.
Take `Cc1ccc(C(C[N+](=O)[O-])c2c(N)n(C)c(=O)n(C)c2=O)cc1` (stereo unspecified): the kinetic solubility was greater than 47.7 µg/mL.
The result for `O=C1Nc2ccccc2S/C1=C/c1cccs1` reads less than 0.6 µg/mL.
`O=C(CSc1ccc([N+](=O)[O-])cc1)Nc1ccccc1N1CCOCC1`: the kinetic solubility is 4.9 µg/mL (≈ 13.1 µM).
`O=C(O)c1cccnc1SCc1cn2cc(Cl)ccc2n1` showed a kinetic solubility greater than 48 µg/mL.
On to `CCN(CC)CC(O)CCCCCCCCC(=O)OC.Cl` (stereo unspecified), for which the kinetic solubility is greater than 48.6 µg/mL.
The result for `CCN(C(=O)N1CCOCC1)c1ccccc1C` reads 26 µg/mL (≈ 105 µM); that for `Cc1cccc(NC(=O)CSc2ncnc3sc(C)cc23)c1`, 0.7 µg/mL (≈ 2.12 µM).
The result for `O=C(Nc1ccccc1)N1CCCN(c2nccc(C(F)(F)F)n2)CC1` reads 1.7 µg/mL (≈ 4.65 µM).
